Results from patent US10000500B2 (PROMEGA CORPORATION, priority 2016, dated 2018).

Key:
Type in all cases: biochemical
NANOLUC® Luciferase [1] = target: T1, NANOLUC® Luciferase (Oplophorus gracilirostris, UniProt Q9GV45, A31E/A60N/A81I/F95D/I117V/K70R/L54V/L99Q/M102K/N193R/P142E/Q151K/Q38R/Q45L/V71I/Y165I); assay: Spectral measurements in various buffers with NANOLUC luciferase (Example 10); conditions: for shift of the NanoLuc luciferase spectral properties: FIGS. 3A-3C and 4A-4D; for NanoGlo (spectral peak, Table 4) / OptiMEM (spectral peak, Table 4) / High / Low / Peak / Width: NanoLuc; for NanoGlo (spectral peak, Table 4): NanoGlo buffer; for High / Low / Peak / Width: emission spectrum
Method: (§1) Each compound to be screened was diluted to a concentration of 100 uM (50 uM final concentration) in Renilla Glo Luciferase Assay buffer (Promega Corporation), NANO-GLO Luciferase Assay Buffer (Promega Corporation), or 20 uM (10 uM final) in OptiMEM+0.1% FBS. NANOLUC® luciferase and Renilla luciferase were serially diluted to 4, 40, and 400 ng/ml in OptiMEM+0.1% FBS. 50 ul of each compound dilution was mixed with 50 ul enzyme dilution and incubated for 1 minute at room temperature. Autoluminescence spectra of AS-353 was measured by adding 20 uM of substrate to OptiMEM+20% FBS and then 50 ul of this dilution was combined with 50 ul of OptiMEM+0.1% FBS. Spectral measurements were measured using a Tecan M-1000 luminometer. ([…]).

NANOLUC® Luciferase [2] = target: T1, NANOLUC® Luciferase; assay: Luminescence assay with purified NANOLUC luciferase (Example 7); conditions: bioluminescence with NANOLUC luciferase
Method: Each compound to be screened was dissolved in DMSO (5 mM) and then further diluted to 100 uM in NANO-GLO® Luciferase Assay Buffer. Each diluted substrate was then combined in equal volumes with purified NANOLUC® Luciferase diluted into CO2 independent media+10% FBS. Initial light output for each substrate was measured in a GLOMAXI-Multi+luminometer three minutes after substrate addition and then at five minute intervals as a means to determine signal half-life.
The synthesized coelenterazine analogues (compounds of formula (I) and (II)) were evaluated for their suitability as luciferase substrates. NANOLUC® luciferase was employed for the screening because it is a small (19 kDa), stable, and particularly bright enzyme.

NANOLUC® Luciferase [3] = target: T1, NANOLUC® Luciferase; assay: as above; conditions: value marked (Autolum): autoluminescence
Renilla luciferase [4] = target: T2, Renilla luciferase (Renilla reniformis, UniProt P27652); assay: Spectral measurements in various buffers with Renilla luciferase (Example 10); parameters: Low / High / Width: unit not given here; conditions: for RenillaGlo (spectral peak, Table 4): RenillaGlo buffer; for High / Low / Peak / Width: emission spectrum
T2 sequence (P27652 1-311): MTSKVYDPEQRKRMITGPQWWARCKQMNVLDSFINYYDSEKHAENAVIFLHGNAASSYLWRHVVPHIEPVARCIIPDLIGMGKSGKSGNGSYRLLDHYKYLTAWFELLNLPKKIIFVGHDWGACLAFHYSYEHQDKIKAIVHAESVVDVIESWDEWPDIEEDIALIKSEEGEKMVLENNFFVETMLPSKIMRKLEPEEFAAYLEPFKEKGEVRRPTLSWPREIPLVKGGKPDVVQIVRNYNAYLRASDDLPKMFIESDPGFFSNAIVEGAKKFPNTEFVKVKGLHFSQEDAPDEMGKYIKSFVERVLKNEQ
Method: as §1

NANOLUC® Luciferase [5] = target: T1, NANOLUC® Luciferase; assay: Enzyme titration with NanoLuc luciferase (Example 9B); conditions: NanoLuc luciferase, FIG. 2B
Method: Renilla luciferase and NanoLuc Lucifersase were diluted to a concentration of 4 ug/ml (4 ng/uL) in OptiMEM+0.1% FBS. 10× serial dilutions of the luciferases were then prepared in OptiMEM+0.1% FBS. Each substrate was diluted to 100 uM into Renilla Glo Luciferase assay buffer (Promega Corporation). The 10× enzyme serial dilutions were then combined with the substrate dilutions, 50 ul mixed with 50 ul compound, and incubated for 1 minute at room temperature. Light output for each compound was measured on a GLOMAX®-Multi+ luminometer.

Renilla luciferase [6] = target: T2, Renilla luciferase; assay: Km and Vmax substrate titration with Renilla luciferase (Example 8)
Method: (§2) Each compound to be screened was diluted to a concentration of 100 uM in Renilla Glo Luciferase Assay buffer (Promega Corporation) and then further diluted to 2×serial dilution in Renilla Glo Luciferase Assay Buffer. NANOLUC® luciferase and Renilla luciferase were diluted to a concentration of 4 ng/ml in OptiMEM+0.1% FBS. 50 ul of each compound dilution was then mixed with 50 ul of each enzyme dilution and incubated for 1 minute at room temperature. Light output for each compound was measured on a GLOMAX®-Multi+ luminometer. Km and Vmax were calculated for each enzyme/substrate combination using a GraphPad Prism Michaelis-Menten non-linear fit (FIGS. 1A-ID).

NANOLUC® Luciferase [7] = target: T1, NANOLUC® Luciferase; assay: Km and Vmax substrate titration with NanoLuc luciferase (Example 8); conditions: for light produced by NanoLuc luciferase compared to Renilla: FIGS. 1A-1D
Method: as §2

[8] = Renilla luciferase 4 ng/ml, Renilla Glo buffer, Michaelis-Menten fit
[9] = NanoLuc 4 ng/ml, Renilla Glo buffer, Michaelis-Menten fit

T1 sequence (Q9GV45 28-196 with tags or gaps with the stated changes limits assumed): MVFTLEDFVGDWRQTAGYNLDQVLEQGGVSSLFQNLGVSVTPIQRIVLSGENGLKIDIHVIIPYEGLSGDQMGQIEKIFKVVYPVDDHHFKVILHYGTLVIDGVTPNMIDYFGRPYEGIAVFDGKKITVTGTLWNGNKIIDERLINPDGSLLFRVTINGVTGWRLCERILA

Compound | shift of the NanoLuc luciferase spectral properties (NANOLUC® Luciferase [1]) | NanoGlo (spectral peak, Table 4) (NANOLUC® Luciferase [1]) | OptiMEM (spectral peak, Table 4) (NANOLUC® Luciferase [1]) | High (NANOLUC® Luciferase [1]; NanoGlo Buffer) | Low (NANOLUC® Luciferase [1]; NanoGlo Buffer) | Peak (NANOLUC® Luciferase [1]; NanoGlo Buffer) | Width (NANOLUC® Luciferase [1]; NanoGlo Buffer) | High (NANOLUC® Luciferase [1]; OptiMEM + 0.1% FBS) | Low (NANOLUC® Luciferase [1]; OptiMEM + 0.1% FBS) | Peak (NANOLUC® Luciferase [1]; OptiMEM + 0.1% FBS) | Width (NANOLUC® Luciferase [1]; OptiMEM + 0.1% FBS) | λmax, nm (NANOLUC® Luciferase [2]) [nm] | λmax, nm (Autolum) (NANOLUC® Luciferase [3]) | RenillaGlo (spectral peak, Table 4) (Renilla luciferase [4]; Renilla) | High (Renilla luciferase [4]; Renilla/RenillaGlo) | Low (Renilla luciferase [4]; Renilla/RenillaGlo) | Peak (Renilla luciferase [4]; Renilla/RenillaGlo) | Width (Renilla luciferase [4]; Renilla/RenillaGlo) | also measured
O=c1c(Cc2ccco2)nc2c(-c3ccccc3)[nH]c(-c3ccccc3)cn1-2 [AS-174, 2-(furan-2-ylmethyl)-6,8-diphenylimidazo[1,2-a]pyrazin-3(7H)-one] | shifted the NanoLuc® luciferase spectral properties to red | 493 | 490 | 541 | 460 | 493 | 81 | 535 | 460 | 490 | 75 | 496 |  |  |  |  |  |  | 
N#Cc1ccc(-c2[nH]c(-c3ccccc3)cn3c(=O)c(Cc4ccco4)nc2-3)s1 [AS-262, 5-(2-(furan-2-ylmethyl)-3-oxo-6-phenyl-3,7-dihydroimidazo[1,2-a]pyrazin-8-yl)thiophene-2-carbonitrile] | shifted the NanoLuc® luciferase spectral properties to red | 577 | 574 | 634 | 535 | 577 | 99 | 625 | 532 | 574 | 93 | 574 |  |  |  |  |  |  | 
N#Cc1ccc(-c2[nH]c(-c3cccs3)cn3c(=O)c(Cc4ccco4)nc2-3)s1 [AS-287, 5-(2-(furan-2-ylmethyl)-3-oxo-6-(thiophen-2-yl)-3,7-dihydroimidazo[1,2-a]pyrazin-8-yl)thiophene-2-carbonitrile] |  |  |  |  |  |  |  |  |  |  |  |  | 556 (Autolum) nm |  |  |  |  |  | 
N#Cc1ccc(-c2[nH]c3ccccc3n3c(=O)c(Cc4ccco4)nc2-3)s1 [AS-293, 5-(2-(furan-2-ylmethyl)-1-oxo-1,5-dihydroimidazo[1,2-a]quinoxalin-4-yl)thiophene-2-carbonitrile] |  |  |  |  |  |  |  |  |  |  |  |  | 596 (Autolum) nm |  |  |  |  |  | 
O=c1c(Cc2ccco2)nc2c(-c3ccnc(F)c3)[nH]c(-c3ccnc(F)c3)cn1-2 [AS-295, 26,8-bis(2-fluoropyridin-4-yl)-2-(furan-2-ylmethyl)imidazo[1,2-a]pyrazin-3(7H)-one] |  |  |  |  |  |  |  |  |  |  |  |  | 520 (Autolum) nm |  |  |  |  |  | 
O=c1c(Cc2ccco2)nc2c(-c3ccnc4ccccc34)[nH]c(-c3ccccc3)cn1-2 [AS-310, 2-(furan-2-ylmethyl)-6-phenyl-8-(quinolin-4-yl)imidazo[1,2-a]pyrazin-3(7H)-one] | shifted the NanoLuc® luciferase spectral properties to red | 574 | 571 | 631 | 526 | 574 | 105 | 631 | 520 | 571 | 111 | 571 |  |  |  |  |  |  | 
O=c1c(Cc2ccco2)nc2c(-c3ccnc4ccccc34)[nH]c(-c3ccc(O)cc3)cn1-2 [AS-360, 2-(furan-2-ylmethyl)-6-(4-hydroxyphenyl)-8-(quinolin-4-yl)imidazo[1,2-a]pyrazin-3(7H)-one] | shifted the NanoLuc® luciferase spectral properties to red | 589 | 583 | 647 | 538 | 589 | 109 | 646 | 532 | 583 | 114 |  |  | 487 | 553 | 451 | 487 | 102 | luminescence rank in the panel tested (NANOLUC® Luciferase [5]): brightest luminescence in the panel tested; brighter than both Renilla and NanoLuc luciferase with AS-361 (NANOLUC® Luciferase [5]; substrate 100 uM): ~30 ×
Oc1ccc(-c2cn3c(O)c(Cc4ccccc4)nc3c(Cc3ccccc3)n2)cc1 [Coelenterazine-H] |  | 466 | 460 | 508 | 433 | 466 | 75 | 502 | 433 | 460 | 69 |  |  | 490 | 541 | 454 | 490 | 87 | more light with Renilla luciferase compared to Furimazine (Renilla luciferase [6]; FIGS. 1A-1D): ~7 ×; Km (Renilla luciferase [6]; [8]): 3.26 µM; Vmax (Renilla luciferase [6]; [8]): 64,494; OptiMEM (spectral peak, Table 4) (Renilla luciferase [4]; Renilla): 487; High (Renilla luciferase [4]; Renilla, OptiMEM + 0.1% FBS): 535; Low (Renilla luciferase [4]; Renilla, OptiMEM + 0.1% FBS): 451; Peak (Renilla luciferase [4]; Renilla, OptiMEM + 0.1% FBS): 487; Width (Renilla luciferase [4]; Renilla, OptiMEM + 0.1% FBS): 84; light produced by NanoLuc luciferase compared to Renilla (NANOLUC® Luciferase [7]): significantly more light than Renilla; Vmax (NANOLUC® Luciferase [7]; [9]): 19,790,000; Km (NANOLUC® Luciferase [7]; NanoLuc 4 ng/ml, Renilla Glo buffer, Michaelis-Menten fit, read-out: Km): 36.4 µM
O=c1c(Cc2ccco2)nc2c(Cc3ccccc3)[nH]c(-c3ccccc3)cn1-2 [Furimazine, 8-benzyl-2-(furan-2-ylmethyl)-6-phenylimidazo[1,2-a]pyrazin-3(7H)-one] |  | 463 | 463 | 520 | 433 | 463 | 87 | 499 | 430 | 463 | 69 | 460 |  | 436 | 490 | 403 | 436 | 87 | Vmax (Renilla luciferase [6]; [8]): 8,910; OptiMEM (spectral peak, Table 4) (Renilla luciferase [4]; Renilla): 430; High (Renilla luciferase [4]; Renilla, OptiMEM + 0.1% FBS): 472; Low (Renilla luciferase [4]; Renilla, OptiMEM + 0.1% FBS): 403; Peak (Renilla luciferase [4]; Renilla, OptiMEM + 0.1% FBS): 430; Width (Renilla luciferase [4]; Renilla, OptiMEM + 0.1% FBS): 69; light produced by NanoLuc luciferase compared to Renilla (NANOLUC® Luciferase [7]): significantly more light than Renilla; Vmax (NANOLUC® Luciferase [7]; [9]): 33,470,000
